The results in this text go back to patent US12503484B2, “Androstane derivatives with activity as pure or predominantly pure stimulators of SERCA2a for the treatment of heart failure” (Seismic Pharmaceuticals, priority 2019, dated 2025).

Assay [1] deals with dog renal Na^+/K^+ ATPase (Canis lupus familiaris (Dog) (Canis familiaris), UniProt P50997). Description: biochemical. As to conditions: IC50 inhibition of dog renal Na+/K+ ATPase, purified dog kidney enzyme.
From the text: Inhibition of Dog Renal Na^+/K^+ ATPase Activity
The compounds were thus tested for their inhibitory effect on the canine renal Na^+/K^+ ATPase enzyme.
Kidneys were excised from 1-3 year-old male beagle dogs (WuXi AppTec, Suzhou Co., Ltd. 1318 Wuzhong Ave., Wuzhong District Suzhou, 215104 P.R. China) under pentobarbital anesthesia (Import Authorization from Italian Health Ministry 0009171-09/04/2015-DGSAF-COD_UO-P, 2015). Kidneys were sliced and the outer medulla was dissected and suspended (1 g/10 ml) in a sucrose-histidine solution containing 250 mM sucrose, 30 mM histidine, and 5 mM EDTA, pH 7.2. The tissue was homogenized by using an Ultra Turrax homogenizer. The sample was centrifuged at 6,000 g for 15 min. Next, the supernatant was decanted and centrifuged at 48,000 g for 30 min. The pellet was suspended in the sucrose-histidine buffer and incubated for 20 min with a sodium-dodecyl-sulphate (SDS) solution dissolved in a gradient buffer containing 25 mM imidazole and 1 mM EDTA, pH 7.5. The sample was layered on the top of a sucrose discontinuous gradient (10, 15, and 29.4%) and centrifuged at 60,000 g for 115 min. The pellet was suspended in the gradient buffer.
Increasing concentrations of the standard ouabain, or tested compound, were incubated with 0.3 μg of purified dog kidney enzyme for 10 min at 37° C. in 120 μl final volume of a medium containing 140 mM NaCl, 3 mM MgCl2, 50 mM Hepes-Tris, 3 mM ATP, pH 7.5. Then, 10 μl of a solution containing 10 mM KCl and 20 nCi of ^32P-ATP (3-10 Ci/mmol, Perkin Elmer) were added. The reaction was allowed to continue for 15 min at 37° C. and then stopped by acidification with 20% v/v ice-cold perchloric acid. ^32P was separated by centrifugation with activated Charcoal (Norit A, Serva) and the radioactivity was counted. The inhibitory activity was expressed as percent of the control samples carried out in the absence of ouabain, or tested compound.
In assay [2] the target is SERCA2a (Cavia porcellus, UniProt A0A286XD73). Description: SERCA2a ATPase activity in heart-derived SR microsomes from normal guinea-pig. Type of assay: biochemical. As to the method:
SERCA2a ATPase Activity in Heart-Derived SR Microsomes from Normal Quinea-Pig
SERCA2a activity was measured in vitro as ^32P-ATP hydrolysis at different Ca^2+ concentrations (100-4000 nM) in the absence and presence of the tested compounds, as described (Micheletti R. et al., Am J Card 2007, 99:24A-32A). Increasing concentrations of each compound (ranging from 1 to 200 nM) were pre-incubated with 2 μg of SERCA2a enriched microsomes for 5 min at 4° C. in 80 μl of a solution containing 100 mM KCl, 5 mM MgCl2, 1 μM A23187, 20 mM Tris, pH 7.5. […] SERCA2a-dependent activity was identified as the portion of total hydrolytic activity inhibited by 10 μM cyclopiazonic acid (Seidler N W et al., J Biol Chem. 1989, 264:17816-23).
Dose-response curves were fitted by using a sigmoidal equation and the activity at the maximal velocity (Vmax) and the Kd for Ca^2+ were calculated (Synergy Software KaleidaGraph 3.6). The effect of the compounds in normal guinea-pig preparations was expressed as % decrease of Kd Ca^2+ (implying an increase of affinity for Ca^2+) of a control sample run in the absence of compound (Table 2). […] Data are mean±SD, n=number of experiments, *at least p<0.05.

The mark [3] stands for this setting: compound 10 nM, read-out: Kd Ca2+ (nM) mean ± SD.
Where [4] appears, read: compound 100 nM, read-out: Kd Ca2+ (nM) mean ± SD.
Setting [5] is: compound 200 nM, read-out: Kd Ca2+ (nM) mean ± SD.
Setting [6] is: read-out: Kd Ca2+ (nM) mean ± SD, compound 100 nM.
The mark [7] stands for this setting: read-out: Kd Ca2+ (nM) mean ± SD, compound 200 nM.

Where two headings read alike, the source gives them in different places. Marks after values point to notes of the source that are not given here.
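Throughout, for IC50: enzyme preincubated with inhibitor 10 min at 37 °C, then K^+ and ^32P-ATP added for 15 min, released ^32P counted, activity relative to untreated control.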

SERCA2a, sequence (A0A286XD73 1-997): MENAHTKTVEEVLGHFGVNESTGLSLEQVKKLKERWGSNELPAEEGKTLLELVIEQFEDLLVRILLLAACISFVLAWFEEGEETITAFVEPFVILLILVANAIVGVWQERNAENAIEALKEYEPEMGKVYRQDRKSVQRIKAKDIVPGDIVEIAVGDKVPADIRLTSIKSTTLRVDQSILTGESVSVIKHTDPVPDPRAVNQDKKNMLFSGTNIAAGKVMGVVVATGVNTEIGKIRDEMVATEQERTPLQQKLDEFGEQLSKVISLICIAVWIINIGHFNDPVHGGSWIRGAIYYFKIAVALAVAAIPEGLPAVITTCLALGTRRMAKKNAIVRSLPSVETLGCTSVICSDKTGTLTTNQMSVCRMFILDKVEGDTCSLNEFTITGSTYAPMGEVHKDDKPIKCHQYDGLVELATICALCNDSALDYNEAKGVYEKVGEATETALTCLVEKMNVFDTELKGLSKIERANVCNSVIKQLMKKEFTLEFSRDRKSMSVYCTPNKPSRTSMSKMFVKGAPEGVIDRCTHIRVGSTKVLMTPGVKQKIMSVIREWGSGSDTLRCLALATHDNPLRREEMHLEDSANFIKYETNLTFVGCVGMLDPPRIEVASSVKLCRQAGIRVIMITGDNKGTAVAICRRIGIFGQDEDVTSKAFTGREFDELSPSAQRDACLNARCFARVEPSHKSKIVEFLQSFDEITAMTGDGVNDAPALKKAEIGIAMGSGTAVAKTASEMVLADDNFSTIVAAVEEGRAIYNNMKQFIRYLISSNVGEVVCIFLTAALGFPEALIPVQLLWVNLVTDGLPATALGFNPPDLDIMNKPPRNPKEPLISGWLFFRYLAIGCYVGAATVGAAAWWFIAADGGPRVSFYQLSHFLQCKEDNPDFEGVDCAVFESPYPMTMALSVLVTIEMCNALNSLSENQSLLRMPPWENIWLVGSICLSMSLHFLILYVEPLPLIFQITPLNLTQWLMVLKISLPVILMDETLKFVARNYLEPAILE

One may read the IC50 as the concentration at which inhibition is half-maximal. Lower therefore signals greater potency. For `C[C@]12CCC(=CCCCN)CC1[C@@H](O)C[C@@H]1[C@@H]2CC[C@]2(C)C(=O)CC[C@@H]12` (mixture of isomers) [CVie209, (EZ)-3-(4-aminobutyliden]-6alpha-hydroxyandrostane-17-one], in assay [1], the IC50 worked out at 800 nM.
The same measure, in the same setting: the result for `C[C@]12CCC(=CCC3CCNC3)CC1[C@@H](CO)C(=O)C1C2CC[C@]2(C)C(=O)CCC12` (mixture of isomers) [CVie402, (E,Z)-3-[2-(pirrolidin-3yl)ethyliden]-6alpha-hydroxymethylandrostane-7,17-dione] reads 4600 nM.
Still for that read-out and setting: the result for `C[C@]12CCC(=CCC3CCNCC3)CC1[C@@H](CO)C(=O)C1C2CC[C@]2(C)C(=O)CCC12` (mixture of isomers) [CVie405, (E,Z)-3-[2-(piperidin-4-yl)ethyliden]-6alpha-hydroxymethylandrostane-7,17-dione] reads 7900 nM; that for `CNCCCCC=C1CC[C@]2(C)C3CC[C@]4(C)C(=O)CCC4C3[C@H](O)[C@H](CO)C2C1` (mixture of isomers) [CVie406, (E,Z)-3-(5-N-methylaminopentyliden)-6alpha-hydroxymethyl-7alpha-hydroxyandrostane-17-one], 1900 nM.
The Kd is a measure of binding affinity in units of concentration. In assay [1], `C[C@]12CC/C(=C\CCC(=O)O)CC1[C@@H](O)C[C@@H]1[C@@H]2CC[C@]2(C)C(=O)CC[C@@H]12` (stereo partly drawn) [CVie201, (E)-4-(6alpha-hydroxy-17-oxoandrostane-3-yliden)butyric acid] registered a half-maximal inhibitory concentration (IC50) above 100000 nM. In addition, the “% change in Ca2+ Kd vs control (negative = decrease)” value (“% change … (negative = decrease)” for short) in assay [2] (compound 10 nM) is given as −14%*; in assay [2] (compound 100 nM), −15%*. The dissociation constant (Kd) in assay [2] (setting [3]) turned out to be 459 ± 57.1 nM; in assay [2] (setting [4]) it was 454 ± 53.2 nM.
As to `C[C@]12CC/C(=C/CCC(=O)O)CC1[C@@H](O)C[C@@H]1[C@@H]2CC[C@]2(C)C(=O)CC[C@@H]12` (stereo partly drawn) [CVie202, (Z)-4-(6alpha-hydroxy-17-oxoandrostane-3-yliden)butyric acid], the 50% inhibitory concentration (IC50) in assay [1] was above 100000 nM. Moreover, the entries for the “% change … (negative = decrease)” value in assay [2] (compound 10 nM), in assay [2] (compound 100 nM) and in assay [2] (compound 200 nM) were −4%, −7% and −6%, respectively. The results for the Kd in assay [2] (setting [3]), in assay [2] (setting [4]) and in assay [2] (setting [5]) were 448 ± 9.4 nM, 436 ± 24.9 nM and 437 ± 26.4 nM, respectively.
Turning to `C[C@]12CC/C(=C\CCC(=O)O)CC1[C@H](O)C[C@@H]1[C@@H]2CC[C@]2(C)C(=O)CC[C@@H]12` (stereo partly drawn) [CVie203, (E)-4-(6beta-hydroxy-17-oxoandrostane-3-yliden)butyric acid], the half-maximal inhibitory concentration (IC50) in assay [1] was above 100000 nM. Further, the results for the “% change … (negative = decrease)” value in assay [2] (compound 10 nM), in assay [2] (compound 100 nM) and in assay [2] (compound 200 nM) were −8%, −15%* and −14%*, respectively. Further, the Kd in assay [2] (setting [3]) turned out to be 418 ± 36.5 nM; in assay [2] (setting [4]) it was 386 ± 33.3 nM; in assay [2] (setting [5]), 393 ± 31.3 nM.
Take `C[C@]12CC/C(=C/CCC(=O)O)CC1[C@H](O)C[C@@H]1[C@@H]2CC[C@]2(C)C(=O)CC[C@@H]12` (stereo partly drawn) [CVie204, (Z)-4-(6beta-hydroxy-17-oxoandrostane-3-yliden)butyric acid]: in assay [1], the 50% inhibitory concentration (IC50) was above 100000 nM. In addition, the “% change … (negative = decrease)” value is recorded as “+13%” in assay [2] (compound 100 nM) and −3% in assay [2] (compound 200 nM). Further, the Kd in assay [2] (setting [4]) was 493 ± 107 nM; in assay [2] (setting [5]), 424 ± 82.7 nM.
Consider `C[C@]12CC/C(=C\CC3CNC3)CC1[C@@H](O)C[C@@H]1[C@@H]2CC[C@]2(C)C(=O)CC[C@@H]12` (stereo partly drawn) [CVie205, (E)-3-[2-(azetidin-3-yl)ethyliden]-6alpha-hydroxyandrostane-17-one], for which half-maximal inhibition in assay [1] (IC50) was put at 7000 nM. Also, the “% change … (negative = decrease)” value in assay [2] (compound 100 nM) is recorded as −16.7%*; in assay [2] (compound 200 nM) it was −13.1%*. In addition, the dissociation constant (Kd) in assay [2] (setting [6]) is 656 ± 56.6 nM; in assay [2] (setting [7]) it was 683 ± 46.4 nM.
For `C[C@]12CC/C(=C/CC3CNC3)CC1[C@@H](O)C[C@@H]1[C@@H]2CC[C@]2(C)C(=O)CC[C@@H]12` (stereo partly drawn) [CVie206, (Z)-3-[2-(azetidin-3-yl)ethyliden]-6alpha-hydroxyandrostane-17-one] the same measures were 5900 nM, −13.7%*, −15.1%*, 678 ± 86.7 nM and 667 ± 55.6 nM.
For the compound `C[C@]12CC=C(CCCCN)CC1[C@@H](O)CC1C2CC[C@]2(C)C(=O)CCC12` (stereo partly drawn) [CVie207, (E)-3-(4-aminobutyl)-6alpha-hydroxyandrost-2-ene-17-one hydroiodide], the concentration for half-maximal inhibition (IC50) in assay [1] amounted to 3900 nM.
Take `C[C@]12CC=C(CCC3CCNCC3)CC1[C@@H](O)C[C@@H]1[C@@H]2CC[C@]2(C)C(=O)CC[C@@H]12` (stereo partly drawn) [CVie208, 3-[2-(piperidin-4-yl)ethyl]-6alpha-hydroxyandrost-2-ene-17-one hydroiodide]: inhibition in assay [1] was half-maximal at 10400 nM (IC50). Besides, the “% change … (negative = decrease)” value was −19.1%* in assay [2] (compound 100 nM) and −21.7% in assay [2] (compound 200 nM). Besides, the equilibrium dissociation constant (Kd) amounted to 362 ± 72.2 nM in assay [2] (setting [4]) and 350 ± 109 nM in assay [2] (setting [5]).
As for `C[C@]12CC/C(=C\CC3CCNCC3)CC1[C@@H](O)C[C@@H]1[C@@H]2CC[C@]2(C)C(=O)CC[C@@H]12` (stereo partly drawn) [CVie210, (E)-3-[2-(piperidin-4-yl)ethyliden]-6alpha-hydroxyandrostane-17-one], the half-inhibitory concentration (IC50) in assay [1] was 13100 nM.
On to `C[C@]12CC/C(=C/CC3CCNCC3)CC1[C@@H](O)C[C@@H]1[C@@H]2CC[C@]2(C)C(=O)CC[C@@H]12` (stereo partly drawn) [CVie211, (Z)-3-[2-(piperidin-4-yl)ethyliden]-6alpha-hydroxyandrostane-17-one], for which half-maximal inhibition in assay [1] (IC50) was put at 8300 nM.
As for `C[C@]12CC[C@H](CCC3CCNCC3)CC1[C@@H](O)C[C@@H]1[C@@H]2CC[C@]2(C)C(=O)CC[C@@H]12` (stereo partly drawn) [CVie212, 3beta-[2-(piperidin-4-yl)ethyl]-6alpha-hydroxyandrostane-17-one], the IC50 in assay [1] was found to be 3500 nM. The “% change … (negative = decrease)” value in assay [2] (compound 10 nM) is on record as −19.6%*; in assay [2] (compound 100 nM), −20.2%*. In addition, the Kd in assay [2] (read-out: Kd Ca2+ (nM) mean ± SD, compound 10 nM) was 409 ± 121 nM; in assay [2] (setting [6]), 406 ± 82.9 nM.
`CCOC(=O)C[C@H]1CC[C@]2(C)C3CC[C@]4(C)C(=O)CCC4C3C[C@H](O)C2C1` (stereo partly drawn) [CVie213, Ethyl (6alpha-hydroxy-17-ketoandrostane-3beta-yl) acetate] had an IC50 in assay [1] above 100000 nM. In addition, the “% change … (negative = decrease)” value in assay [2] (compound 10 nM) is −12%; in assay [2] (compound 100 nM) it was −23%*; in assay [2] (compound 200 nM) it was −17%*. For the same compound, the dissociation constant Kd came out at 432 ± 129 nM in assay [2] (setting [3]), 378 ± 114 nM in assay [2] (setting [4]) and 407 ± 124 nM in assay [2] (setting [5]).
`CNCCCC/C=C1\CC[C@]2(C)C3CC[C@]4(C)C(=O)CCC4C3C(=O)[C@H](CO)C2C1` (stereo partly drawn) [CVie401, (E,Z)-3-(5-N-methylaminopentyliden]-6alpha-hydroxymethylandrostane-7,17-dione] displayed a concentration for half-maximal inhibition (IC50) in assay [1] of 24000 nM.
As to `C[C@]12CC/C(=C\CC3CNC3)CC1[C@@H](CO)C(=O)C1C2CC[C@]2(C)C(=O)CCC12` (some centres unmarked) [CVie403], the 50% inhibitory concentration (IC50) in assay [1] worked out at 2900 nM.
Still for that read-out and setting: the result for `C[C@]12CC[C@H](CCC3CCNC3)CC1[C@@H](CO)C(=O)C1C2CC[C@]2(C)C(=O)CCC12` (stereo partly drawn) [CVie409, 3beta-[2-(pirrolidin-3yl)ethyl]-6alpha-hydroxymethylandrostane-7,17-dione] reads 3400 nM.
In assay [1], `C[C@]12CC[C@H](CCC3CCNC3)CC1[C@@H](CO)[C@@H](O)C1C2CC[C@]2(C)C(=O)CCC12` (stereo partly drawn) [CVie410, 3beta-[2-(pirrolidin-3yl)ethyl]6alpha-hydroxymethyl-7alpha-hydroxyandrostane-17-one] gave an IC50 of 3700 nM.
